According to ChEMBL document CHEMBL1201862, “PubChem BioAssay data set” (2004):
The source made the active and inactive calls.

Experiments:
[1] = target: T1, Type-1 angiotensin II receptor (Homo sapiens, UniProt P30556); assay: AT1 receptor antagonists, dose response, selectivity assay for APJ receptor antagonist project, cell-based, uHTS hits (AID 463214); type: functional;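 also: antagonist potency against angiotensin II stimulated AT1 response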
T1 sequence (P30556 whole entry): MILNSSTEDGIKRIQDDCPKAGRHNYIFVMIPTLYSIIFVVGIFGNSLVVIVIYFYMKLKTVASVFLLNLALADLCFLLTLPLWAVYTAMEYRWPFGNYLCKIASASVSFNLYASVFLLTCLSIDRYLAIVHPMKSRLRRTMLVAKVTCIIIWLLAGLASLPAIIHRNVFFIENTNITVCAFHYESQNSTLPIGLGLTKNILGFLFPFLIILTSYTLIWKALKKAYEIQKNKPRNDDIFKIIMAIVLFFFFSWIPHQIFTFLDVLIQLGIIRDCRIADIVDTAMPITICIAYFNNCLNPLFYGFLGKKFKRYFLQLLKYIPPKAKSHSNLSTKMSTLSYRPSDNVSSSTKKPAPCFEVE

[2] = target: Beta-galactosidase (Escherichia coli, UniProt Q8VNN2); assay: PubChem AID 485352; type: functional
[3] = target: Intestinal-type alkaline phosphatase (Homo sapiens, UniProt P09923); assay: inhibition of human intestinal alkaline phosphatase – biochemical, dose response (AID 488876); type: functional
[4] = target: Intestinal-type alkaline phosphatase (Mus musculus, UniProt P24822); assay: PubChem AID 488785; type: functional
[5] = target: Heat shock protein HSP 90-alpha (Homo sapiens, UniProt P07900); type: functional, organism-based
[6] = target: T2, Alkaline phosphatase, tissue-nonspecific isozyme (Homo sapiens, UniProt P05186); assay: TNAP enzyme inhibition by screening hits, dose response, selectivity assay for mouse IAP inhibitor project, biochemical, human TNAP, uHTS hits (AID 488906); type: functional
T2 sequence (P05186 whole entry): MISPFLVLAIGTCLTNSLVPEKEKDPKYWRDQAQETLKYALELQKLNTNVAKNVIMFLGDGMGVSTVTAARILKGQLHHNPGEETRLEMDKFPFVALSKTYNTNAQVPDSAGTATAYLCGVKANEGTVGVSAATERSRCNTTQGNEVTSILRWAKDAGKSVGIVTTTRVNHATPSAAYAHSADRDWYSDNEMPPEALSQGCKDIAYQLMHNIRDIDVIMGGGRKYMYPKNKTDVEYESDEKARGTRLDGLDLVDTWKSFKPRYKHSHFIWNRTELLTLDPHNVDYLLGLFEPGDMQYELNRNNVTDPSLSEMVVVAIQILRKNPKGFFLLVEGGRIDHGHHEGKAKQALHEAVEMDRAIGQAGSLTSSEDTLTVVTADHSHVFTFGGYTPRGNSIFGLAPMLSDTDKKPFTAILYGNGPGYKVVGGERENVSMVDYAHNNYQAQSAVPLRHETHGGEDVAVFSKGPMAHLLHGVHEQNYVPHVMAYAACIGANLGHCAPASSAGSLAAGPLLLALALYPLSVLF

[7] = test system: HEK293; assay: cells; type: functional, cell-based; conditions: Homo sapiens
[8] = target: T3, Heat shock factor protein 1 (Mus musculus, UniProt P38532); assay: HSF1 potentiators in luciferase reporter cells, confirmation, cell-based, NIH3T3, luminescence, dose retest (AID 435004); type: functional;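 also: stress induced by proteasome inhibitor MG132 added 30 min after compound; luciferase reporter driven by HSF1 response element in NIH3T3 cells; actives raise luminescence as potentiators of the MG132 stress response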
T3 sequence (P38532 whole entry): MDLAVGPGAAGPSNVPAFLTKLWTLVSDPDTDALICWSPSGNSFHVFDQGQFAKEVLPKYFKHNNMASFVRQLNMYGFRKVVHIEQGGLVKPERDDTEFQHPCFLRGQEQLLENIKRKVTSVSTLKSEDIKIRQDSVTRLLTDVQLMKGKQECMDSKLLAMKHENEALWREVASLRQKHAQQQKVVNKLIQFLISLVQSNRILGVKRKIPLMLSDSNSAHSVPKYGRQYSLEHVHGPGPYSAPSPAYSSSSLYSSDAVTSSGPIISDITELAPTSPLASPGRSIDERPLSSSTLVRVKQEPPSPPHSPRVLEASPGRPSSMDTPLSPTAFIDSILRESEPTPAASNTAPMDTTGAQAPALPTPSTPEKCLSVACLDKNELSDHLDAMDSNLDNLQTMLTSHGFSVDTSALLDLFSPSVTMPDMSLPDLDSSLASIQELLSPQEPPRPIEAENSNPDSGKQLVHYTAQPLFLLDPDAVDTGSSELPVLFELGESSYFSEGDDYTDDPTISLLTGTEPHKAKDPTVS

[9] = test system: HEK293; assay: NOD1 signaling inhibitors, primary screen, cell-based, luminescence, uHTS (AID 1578); type: functional; conditions: Homo sapiens
[10] = test system: HEK293; assay: cells; type: functional, cell-based; conditions: Homo sapiens; remark: listed apart in the source
[11] = non-specific cell cytotoxicity, dose response, cytotoxicity control for PAX8 inhibitor project, plate reader, dry powder samples (AID 743021); type: functional, cell-based
[12] = test system: HEK293; assay: NOD2 signaling inhibitors in MDP-stimulated cells, cell-based, uHTS, luminescence (AID 2001); type: functional; conditions: Homo sapiens
[13] = NIH-3T3 fibroblast cytotoxicity, dose response, cytotoxicity control, cell-based, fluorescence, Alamar Blue, secondary assay (AID 2327); type: functional;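 also: NIH-3T3 mouse fibroblasts cultured with fluconazole at 8 µg/mL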
[14] = HepG2 cell cytotoxicity, dose response, cytotoxicity control for Shn3 inhibitor project, CellTiter-Glo, cherry-picked (AID 624134); type: functional, cell-based
[15] = test system: HEK293; assay: cells; type: functional, cell-based; conditions: Homo sapiens; remark: listed apart in the source
[16] = C. albicans growth with fluconazole, confirmation, fluorescence, retest (AID 2467); type: functional, cell-based
[17] = inhibitors of intracellular T. cruzi replication, confirmation, NIH3T3 host cells, beta-gal luminescence (AID 2044); type: functional, cell-based;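 also: intracellular parasites grown in NIH/3T3 mouse fibroblasts as host cells; luminescent beta-galactosidase reporter signal from transgenic T. cruzi replicating inside host cells; inhibitors lower the luminescence signal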
[18] = Shn3 3'UTR reporter inhibitors, dose response, cell-based, Clone20 osteoblasts, firefly luciferase, cherry-picked (AID 624132); type: functional;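 also: firefly luciferase luminescence from reporter carrying the Shn3 3'UTR in osteoblasts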
[19] = target: Nucleotide-binding oligomerization domain-containing protein 2 (Homo sapiens, UniProt Q9HC29); assay: NOD2 signaling inhibitors, cell-based, luminescence, uHTS, HEK293 (AID 1566); type: functional
[20] = control 3'UTR Renilla luciferase suppression, dose response, counter-screen for Shn3 inhibitor project, cell-based, Clone20-Shn3RL, cherry-picked (AID 624133); type: functional
[21] = cytotoxicity toward NIH3T3 fibroblasts, dose response, counter-screen, cell-based, ATP luminescence, mouse fibroblasts (AID 2010); type: functional;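 also: cells exposed to compound for about 90 hours before reading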
[22] = target: T4, Long-chain-fatty-acid--AMP ligase FadD28 (Mycobacterium tuberculosis, UniProt P9WQ59); assay: Fluorescence polarization aasay to screen for inhibitors that compete for the binding of FadD28 to a bisubstrate Measured in Biochemical System Using Plate Reader - 2147-01_Inhibitor_Dose_CherryPick_Activity.; type: functional, Mycobacterium tuberculosis H37Rv
T4 sequence (P9WQ59 whole entry): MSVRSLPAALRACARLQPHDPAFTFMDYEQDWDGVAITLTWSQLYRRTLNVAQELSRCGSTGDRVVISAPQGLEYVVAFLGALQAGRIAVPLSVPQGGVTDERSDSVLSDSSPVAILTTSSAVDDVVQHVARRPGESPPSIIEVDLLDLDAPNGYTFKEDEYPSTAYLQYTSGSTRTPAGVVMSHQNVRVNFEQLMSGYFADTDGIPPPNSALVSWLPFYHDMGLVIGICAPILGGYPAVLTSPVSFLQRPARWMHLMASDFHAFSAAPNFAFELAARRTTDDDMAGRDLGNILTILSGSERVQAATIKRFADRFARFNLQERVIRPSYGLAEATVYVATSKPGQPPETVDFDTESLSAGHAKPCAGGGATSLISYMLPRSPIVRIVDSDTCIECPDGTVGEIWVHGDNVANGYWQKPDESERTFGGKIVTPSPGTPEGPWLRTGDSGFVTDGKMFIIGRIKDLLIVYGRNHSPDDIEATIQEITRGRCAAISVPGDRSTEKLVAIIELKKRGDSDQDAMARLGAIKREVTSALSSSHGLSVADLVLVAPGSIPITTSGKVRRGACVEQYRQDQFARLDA

[23] = target: Exodeoxyribonuclease V (Escherichia coli (strain K12), UniProt P04993+P07648+P08394); assay: E. coli RecBCD inhibitors, dose response, counter-screen for AddAB inhibitor project, absorbance, V66 E. coli, mutant T4 phage (AID 492957); type: functional, cell-based, Escherichia coli str. K-12 substr. MG1655
[24] = Counterscreen for AddAB inhibitors: absorbance-based bacterial cell-based high throughput dose response assay for inhibitors of bacterial viability. [Related pubchem assays (depositor defined):AID435030, AID449728, AID449731, AID488942, AID488955, AID488956]; type: functional

Chain of Intestinal-type alkaline phosphatase (Homo sapiens, UniProt P09923) (P09923 whole entry): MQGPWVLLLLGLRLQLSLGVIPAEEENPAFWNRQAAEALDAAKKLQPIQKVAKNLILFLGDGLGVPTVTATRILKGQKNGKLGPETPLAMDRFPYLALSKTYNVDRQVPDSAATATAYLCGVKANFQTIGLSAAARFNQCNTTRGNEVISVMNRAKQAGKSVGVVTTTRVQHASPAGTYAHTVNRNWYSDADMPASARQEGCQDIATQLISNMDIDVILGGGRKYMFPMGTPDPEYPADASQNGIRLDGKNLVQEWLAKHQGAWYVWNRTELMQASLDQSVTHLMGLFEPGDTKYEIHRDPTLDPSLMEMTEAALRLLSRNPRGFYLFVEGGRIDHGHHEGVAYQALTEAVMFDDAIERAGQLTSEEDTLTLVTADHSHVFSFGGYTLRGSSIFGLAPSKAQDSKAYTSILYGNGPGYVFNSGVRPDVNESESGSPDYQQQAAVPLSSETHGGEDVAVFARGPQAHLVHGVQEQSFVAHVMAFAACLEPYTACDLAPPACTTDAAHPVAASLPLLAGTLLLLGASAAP
Chain of Intestinal-type alkaline phosphatase (Mus musculus, UniProt P24822) (P24822 whole entry): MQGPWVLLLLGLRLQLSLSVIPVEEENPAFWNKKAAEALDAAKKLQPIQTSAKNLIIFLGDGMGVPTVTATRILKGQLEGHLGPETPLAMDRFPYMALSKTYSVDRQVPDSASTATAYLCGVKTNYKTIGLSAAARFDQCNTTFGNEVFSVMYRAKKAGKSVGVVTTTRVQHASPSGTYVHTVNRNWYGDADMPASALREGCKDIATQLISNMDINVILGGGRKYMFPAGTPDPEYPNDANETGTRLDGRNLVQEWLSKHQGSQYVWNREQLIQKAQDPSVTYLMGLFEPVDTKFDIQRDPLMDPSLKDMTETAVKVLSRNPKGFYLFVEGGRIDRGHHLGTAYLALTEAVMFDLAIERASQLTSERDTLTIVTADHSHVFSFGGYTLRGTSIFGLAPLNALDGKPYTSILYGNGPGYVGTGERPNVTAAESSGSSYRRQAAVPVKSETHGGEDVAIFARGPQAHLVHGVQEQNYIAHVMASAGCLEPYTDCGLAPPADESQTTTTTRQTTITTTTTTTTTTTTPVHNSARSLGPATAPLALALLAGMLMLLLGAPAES
Chain of Beta-galactosidase (Q8VNN2 whole entry): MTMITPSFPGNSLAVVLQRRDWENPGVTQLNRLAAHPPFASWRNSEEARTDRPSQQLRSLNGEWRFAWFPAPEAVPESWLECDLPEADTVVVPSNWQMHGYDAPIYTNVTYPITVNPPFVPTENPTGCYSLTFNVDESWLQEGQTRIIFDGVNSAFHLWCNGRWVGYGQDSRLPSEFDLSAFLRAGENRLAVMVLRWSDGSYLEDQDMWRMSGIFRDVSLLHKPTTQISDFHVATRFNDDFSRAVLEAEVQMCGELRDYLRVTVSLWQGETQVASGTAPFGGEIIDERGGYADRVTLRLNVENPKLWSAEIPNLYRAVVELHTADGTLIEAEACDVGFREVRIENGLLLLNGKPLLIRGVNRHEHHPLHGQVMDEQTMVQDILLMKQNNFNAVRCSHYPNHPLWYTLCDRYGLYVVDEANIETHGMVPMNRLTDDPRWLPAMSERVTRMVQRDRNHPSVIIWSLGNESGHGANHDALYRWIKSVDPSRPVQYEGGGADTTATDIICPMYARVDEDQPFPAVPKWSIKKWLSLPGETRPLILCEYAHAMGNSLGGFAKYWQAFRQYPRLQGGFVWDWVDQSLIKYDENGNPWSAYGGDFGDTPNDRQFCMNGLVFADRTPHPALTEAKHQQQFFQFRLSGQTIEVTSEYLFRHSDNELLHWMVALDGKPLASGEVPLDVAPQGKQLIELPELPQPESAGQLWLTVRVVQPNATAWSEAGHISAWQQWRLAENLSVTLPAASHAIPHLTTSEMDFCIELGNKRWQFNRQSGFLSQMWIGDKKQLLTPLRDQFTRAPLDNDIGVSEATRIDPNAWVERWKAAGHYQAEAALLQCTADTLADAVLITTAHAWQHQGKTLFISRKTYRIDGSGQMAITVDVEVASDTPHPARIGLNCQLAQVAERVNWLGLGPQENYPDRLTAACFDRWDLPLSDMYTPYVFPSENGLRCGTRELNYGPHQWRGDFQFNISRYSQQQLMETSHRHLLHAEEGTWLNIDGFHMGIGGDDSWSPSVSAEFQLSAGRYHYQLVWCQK
Chain of Nucleotide-binding oligomerization domain-containing protein 2 (Q9HC29 whole entry, the tested form may be a part): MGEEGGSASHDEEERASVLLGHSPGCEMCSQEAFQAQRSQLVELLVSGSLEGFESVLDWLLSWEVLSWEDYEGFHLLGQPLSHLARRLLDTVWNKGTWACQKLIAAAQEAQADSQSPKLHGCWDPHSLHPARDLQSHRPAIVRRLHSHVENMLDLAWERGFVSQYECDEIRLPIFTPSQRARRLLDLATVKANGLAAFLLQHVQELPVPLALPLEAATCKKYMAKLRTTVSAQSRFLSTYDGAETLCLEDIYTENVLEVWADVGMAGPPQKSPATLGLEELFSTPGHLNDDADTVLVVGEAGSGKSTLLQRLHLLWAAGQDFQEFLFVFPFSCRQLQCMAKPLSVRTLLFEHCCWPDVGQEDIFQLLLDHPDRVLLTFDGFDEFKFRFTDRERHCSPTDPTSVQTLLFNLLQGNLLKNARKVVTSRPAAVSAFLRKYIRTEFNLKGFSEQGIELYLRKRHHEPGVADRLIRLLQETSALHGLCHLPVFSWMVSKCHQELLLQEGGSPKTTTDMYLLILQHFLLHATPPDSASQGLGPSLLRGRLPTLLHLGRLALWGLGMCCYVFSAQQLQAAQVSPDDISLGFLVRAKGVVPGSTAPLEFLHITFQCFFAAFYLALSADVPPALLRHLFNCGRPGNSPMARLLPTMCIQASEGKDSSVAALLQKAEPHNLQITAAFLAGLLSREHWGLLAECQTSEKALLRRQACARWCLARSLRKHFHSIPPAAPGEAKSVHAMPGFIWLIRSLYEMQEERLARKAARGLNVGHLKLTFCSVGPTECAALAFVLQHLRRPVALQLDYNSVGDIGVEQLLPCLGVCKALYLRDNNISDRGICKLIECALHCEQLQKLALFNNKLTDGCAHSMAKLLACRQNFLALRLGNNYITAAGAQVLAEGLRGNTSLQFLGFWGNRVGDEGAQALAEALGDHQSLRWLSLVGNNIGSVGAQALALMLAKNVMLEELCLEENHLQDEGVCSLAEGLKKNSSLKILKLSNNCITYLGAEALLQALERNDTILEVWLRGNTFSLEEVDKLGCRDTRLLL

## COc1cc(/C=C/[N+](=O)[O-])ccc1OC(=O)c1cc2ccccc2oc1=O
[1]
  IC50: 10.4 µM (active)
[2]
  EC50: > 40 µM (inactive)
[3]
  IC50: > 100 µM (inactive)
[4]
  IC50: 13 µM (active)
[5]
  AC50: 1.01 µM (active)
[6]
  IC50: > 100 µM (inactive)

## O=[N+]([O-])c1cccnc1S(=O)(=O)c1ccccc1
[7]
  IC50: 2.38 µM (active)
[8]
  EC50: 11.9 µM (active)
[9]
  EC50: 12.4 µM (active)
[10]
  IC50: 11.6 µM (active)
[11]
  AC50: 24.2 µM (active)
[12]
  IC50: 4.56 µM (active)
[13]
  EC50: 4.24 µM (inconclusive)
[14]
  AC50: 51 µM (active)
[15]
  IC50: > 20 µM (inactive)
[16]
  EC50: 2.63 µM (active)
[17]
  EC50: 3.71 µM (active)
[18]
  AC50: 4.79 µM (active)
[19]
  EC50: > 20 µM (inactive)
[20]
  AC50: 5.79 µM (active)
[21]
  EC50: 4.16 µM (active)

## O=C(NN1C(=O)/C(=C/c2ccc(O)cc2)SC1=S)c1ccccc1O
[3]
  IC50: > 100 µM (inactive)
[22]
  AC50: 61.9 µM (active)
[4]
  IC50: 4.68 µM (active)
[6]
  IC50: > 100 µM (inactive)

## O=C1c2ccccc2NC(c2ccc(-c3ccc(C(F)(F)F)cc3)o2)N1O (stereo not drawn)
[23]
  IC50: > 119 µM (inactive)
[24]
  IC50: > 119 µM (inactive)
[5]
  AC50: 7.23 µM (active)
